Test results taken from paper PMC11161032 (ACS infectious diseases, 2023).

What was measured:
T25E M^pro = assay type: biochemical, SARS-CoV-2
M49L M^pro = assay type: biochemical, SARS-CoV-2

| Compound | increase of Ki compared to wild-type (T25E M^pro) | increase of Ki compared to wild-type (M49L M^pro) |
| --- | --- | --- |
| CC(C)(C)[C@H](NC(=O)C(F)(F)F)C(=O)N1C[C@H]2[C@@H]([C@H]1C(=O)N[C@H](C#N)C[C@@H]1CCNC1=O)C2(C)C [nirmatrelvir] | minimal to no observed impact on Ki | minimal to no observed impact on Ki |
| Cn1cnc(Cn2c(=O)[nH]/c(=N\c3cc4cn(C)nc4cc3Cl)n(Cc3cc(F)c(F)cc3F)c2=O)n1 [ensitrelvir] | 300 fold | 40 fold |
